Measurements as given in ChEMBL document CHEMBL1150051, “Antiviral (RNA) activity of selected Amaryllidaceae isoquinoline constituents and synthesis of related substances” (J Nat Prod, 1992).
Converted amounts (≈) assume the structure as drawn.

Tests used:
[1] = system: Japanese encephalitis virus; assay: Antiviral activity against Japanese encephalitis virus Nakayama infected in african green monkey Vero cells assessed as inhibition of virus-induced cytopathic effect by MTT assay; assay type: functional, organism-based
[2] = Therapeutic index, ratio of TC50 for african green monkey Vero cells to IC50 for Japanese encephalitis virus Nakayama; assay type: cell-based; conditions: read-out: TI
Yellow fever virus = assay: Antiviral activity against Yellow fever virus Ashibi infected in african green monkey Vero cells assessed as inhibition of virus-induced cytopathic effect by MTT assay; assay type: functional, organism-based
[3] = Therapeutic index, ratio of TC50 for african green monkey Vero cells to IC50 for Yellow fever virus Ashibi; assay type: cell-based; conditions: read-out: TI
dengue virus type 4 = assay: Antiviral activity against Dengue virus type 4 infected in african green monkey Vero cells after 6 days by plaque reduction assay; assay type: functional, organism-based
[4] = Therapeutic index, ratio of TC50 for african green monkey Vero cells to IC50 for Dengue type 4 virus; assay type: cell-based; conditions: read-out: TI
Punta Toro virus = assay: Antiviral activity against Punta Toro virus Adames infected in african green monkey Vero cells assessed as inhibition of virus-induced cytopathic effect by MTT assay; assay type: functional, organism-based
[5] = Therapeutic index, ratio of TC50 for african green monkey Vero cells to IC50 for Punta toro virus Adames; assay type: cell-based; conditions: read-out: TI
Rift Valley fever virus = assay: Antiviral activity against Rift Valley fever virus infected in african green monkey Vero cells after 6 days by plaque reduction assay; assay type: functional, organism-based
[6] = system: Sandfly fever Sicilian virus; assay: Antiviral activity against Sandfly fever sicilian virus infected in african green monkey Vero cells assessed as inhibition of virus-induced cytopathic effect by MTT assay; assay type: functional, organism-based
[7] = Therapeutic index, ratio of TC50 for african green monkey Vero cells to IC50 for Rift valley fever virus; assay type: cell-based; conditions: read-out: TI
[8] = Therapeutic index, ratio of TC50 for african green monkey Vero cells to IC50 for Sandfly fever sicilian virus; assay type: cell-based; conditions: read-out: TI
[9] = Japanese encephalitis virus, Nakayama, Vero, read-out: IC50
[10] = Yellow fever virus, Ashibi, Vero, read-out: IC50
[11] = Dengue virus, Vero, 144 h, read-out: IC50
[12] = Punta Toro virus, Adames, Vero, read-out: IC50
[13] = Rift Valley fever virus, Vero, 144 h, read-out: IC50
[14] = sandfly fever Sicilian virus, Vero, read-out: IC50

Structure (SMILES) | IC50 [1, 9] [µg/mL] | selectivity ratio [2] | IC50 (Yellow fever virus; [10]) [µg/mL] | selectivity ratio [3] | IC50 (dengue virus type 4; [11]) [µg/mL] | selectivity ratio [4] | IC50 (Punta Toro virus; [12]) [µg/mL] | selectivity ratio [5] | IC50 (Rift Valley fever virus; vero) | IC50 ([6]; vero) | inhibition (INH) (Yellow fever virus) [%] | inhibition (INH) [6] [%] | IC50 ([1]; vero) | IC50 (Yellow fever virus; vero) | IC50 (Punta Toro virus; vero) | IC50 (Rift Valley fever virus; [13]) [µg/mL] | selectivity ratio [7] | IC50 (dengue virus type 4; vero) | IC50 [6, 14] [µg/mL] | selectivity ratio [8]
O=C1N[C@@H]2C(=C[C@H](O)[C@@H](O)[C@H]2O)c2cc3c(c(O)c21)OCO3 [NARCICLASINE] | 0.008 (≈ 0.026 µM) | 4.08 | 0.006 (≈ 0.0195 µM) | 6.1 | 0.015 (≈ 0.0488 µM) | 4 | 0.0074 (≈ 0.0241 µM) | 3.9 | Not Active | Not Active | – | – | – | – | – | – | – | – | – | –
CC(=O)Oc1c2c(cc3c1C(=O)N[C@H]1[C@H](OC(C)=O)[C@H](OC(C)=O)[C@@H](OC(C)=O)C[C@@H]31)OCO2 | 8.1 (≈ 17 µM) | 3.5 | – | – | – | – | 12 (≈ 25.1 µM) | 6.4 | – | – | 25 | 25 | – | – | – | – | – | – | – | –
O=C1N[C@H]2[C@H](O)[C@H](O)[C@@H](O)C[C@@H]2c2cc3c(c(O)c21)OCO3 | 0.004 (≈ 0.0129 µM) | 5.6 | < 0.003 | > 8.5 | 0.015 (≈ 0.0485 µM) | 4.2 | 0.008 (≈ 0.0259 µM) | 3.3 | – | Not Active | – | – | – | – | – | – | – | – | – | –
O=C1N[C@H]2CC=C[C@H](O)[C@@H]2c2cc3c(cc21)OCO3 | – | – | – | – | – | – | – | – | Not Active | Not Active | – | – | Not Active | Not Active | Not Active | – | – | – | – | –
O=C1N[C@H]2C[C@@H](O)[C@@H](O)[C@H](O)[C@@H]2c2cc3c(cc21)OCO3 | – | – | – | – | – | – | – | – | Not Active | Not Active | – | – | Not Active | Not Active | Not Active | – | – | – | – | –
COc1cc2c(cc1O)[C@@H]1[C@H](O)[C@@H](O)C=C3CCN(C2)[C@H]31 [PSEUDOLYCORINE] | 0.28 (≈ 0.968 µM) | 5 | 0.35 (≈ 1.21 µM) | 3.7 | 0.39 (≈ 1.35 µM) | 2.6 | 0.6 (≈ 2.07 µM) | 3.9 | – | Not Active | – | – | – | – | – | 0.63 (≈ 2.18 µM) | 6 | – | – | –
O=C1N[C@H]2C=C[C@@H](O)[C@H](O)[C@@H]2c2cc3c(cc21)OCO3 | – | – | – | – | – | – | – | – | Not Active | Not Active | – | – | Not Active | Not Active | Not Active | – | – | – | – | –
CC(=O)O[C@@H]1[C@@H](OC(C)=O)[C@H](O)[C@@H]2c3cc4c(cc3C(=O)N[C@H]2[C@@H]1OC(C)=O)OCO4 | 4.5 (≈ 10.3 µM) | 3.6 | 2.2 (≈ 5.05 µM) | 3.8 | < 5 | > 20 | 2.5 (≈ 5.74 µM) | 4.2 | Not Active | Not Active | – | – | – | – | – | – | – | – | – | –
O=c1[nH]c2c(c3cc4c(c(O)c13)OCO4)C[C@H](O)[C@@H](O)[C@H]2O [ISONARCICLASINE] | 0.72 (≈ 2.34 µM) | 2.1 | 0.22 (≈ 0.716 µM) | 4.1 | 0.27 (≈ 0.879 µM) | 18.5 | 0.28 (≈ 0.911 µM) | 5.1 | – | Not Active | – | – | – | – | – | 3.3 (≈ 10.7 µM) | 7.6 | – | – | –
CC(=O)O[C@@H]1[C@H](OC(C)=O)[C@@H](OC(C)=O)C=C2c3cc4c(cc3C(=O)N[C@H]21)OCO4 [LYCORICIDINE TRIACETATE] | – | – | – | – | – | – | – | – | Not Active | Not Active | – | – | Not Active | Not Active | Not Active | – | – | Not Active | – | –
O=C1N[C@H]2C=C[C@@H](O)[C@H](OC3CCCCO3)[C@@H]2c2cc3c(cc21)OCO3 (stereo partly specified) | – | – | – | – | – | – | – | – | Not Active | Not Active | – | – | Not Active | Not Active | Not Active | – | – | – | – | –
O[C@H]1[C@H]2c3cc4c(cc3CN3CCC(=C[C@@H]1O)[C@H]23)OCO4 [LYCORINE] | 0.33 (≈ 1.15 µM) | 8.2 | 0.28 (≈ 0.975 µM) | 7.3 | 0.24 (≈ 0.835 µM) | 10.4 | 0.5 (≈ 1.74 µM) | 4.6 | – | Not Active | – | – | – | – | – | 0.93 (≈ 3.24 µM) | 5.4 | – | – | –
CC(=O)O[C@@H]1[C@@H](O)[C@@H](O)[C@@H]2NC(=O)c3cc4c(cc3[C@H]2[C@H]1O)OCO4 [LYCORICIDINE MONOACETATE] | 3.3 | 3.3 | 4.8 | 4.3 | 1.5 | 33.3 | 4.7 | 2.1 | – | Not Active | – | – | – | – | – | 5.5 | 4.4 | – | – | –
O=C1N[C@@H]2C(=C[C@H](O)[C@@H](O)[C@H]2O)c2cc3c(cc21)OCO3 | 0.056 (≈ 0.192 µM) | 4.9 | 0.053 (≈ 0.182 µM) | 5.6 | 0.059 (≈ 0.203 µM) | 4.2 | 0.042 (≈ 0.144 µM) | 6.3 | – | – | – | – | – | – | – | 0.15 (≈ 0.515 µM) | 5.5 | – | 0.058 (≈ 0.199 µM) | 4.5
CC(=O)O[C@@H]1[C@@H](OC(C)=O)[C@H](OC(C)=O)[C@@H]2c3cc4c(cc3C(=O)N[C@H]2[C@@H]1OC(C)=O)OCO4 | 724 (≈ 1520 µM) | 2.8 | 262 (≈ 549 µM) | 3.8 | – | – | – | – | Not Active | Not Active | – | – | – | – | Not Active | – | – | – | – | –
O=c1[nH]c2c(c3cc4c(cc13)OCO4)C[C@H](O)[C@@H](O)[C@H]2O | – | – | 5.7 (≈ 19.6 µM) | 4.2 | 8.5 (≈ 29.2 µM) | 5.9 | 7.2 (≈ 24.7 µM) | 3.7 | – | Not Active | – | – | Not Active | – | – | 10 (≈ 34.3 µM) | 5 | – | – | –
O=C1N[C@H]2[C@H](O)[C@H](O)[C@@H](O)C[C@H]2c2cc3c(c(O)c21)OCO3 | 0.96 (≈ 3.1 µM) | 5.1 | 1.3 (≈ 4.2 µM) | 3.9 | 2.5 (≈ 8.08 µM) | > 2 | 2.2 (≈ 7.11 µM) | 3.6 | – | – | – | 25 | – | – | – | 1.4 (≈ 4.53 µM) | 3.6 | – | – | –
O=C1N[C@H]2[C@H](O)[C@H](O)[C@@H](O)C[C@H]2c2cc3c(cc21)OCO3 | 12.7 (≈ 43.3 µM) | 4.9 | 9.6 (≈ 32.7 µM) | 6.6 | 4.4 (≈ 15 µM) | 5.7 | 14 (≈ 47.7 µM) | 4.8 | – | – | – | – | – | – | – | – | – | – | 25 (≈ 85.2 µM) | 3
O=C1N[C@H]2[C@H](O)[C@H](O)[C@@H](O)C[C@@H]2c2cc3c(cc21)OCO3 | 0.039 (≈ 0.133 µM) | 5.6 | 0.037 (≈ 0.126 µM) | 7.5 | 0.5 (≈ 1.7 µM) | 5 | 0.057 (≈ 0.194 µM) | 5.9 | – | Not Active | – | – | – | – | – | 0.25 (≈ 0.852 µM) | 2 | – | – | –
CO[C@@H]1C=C[C@@]23c4cc5c(cc4C(O)O[C@H]2CN(C)[C@H]3C1)OCO5 (stereo partly specified) [PRETAZETTINE] | 0.6 (≈ 1.81 µM) | 3.8 | 0.5 (≈ 1.51 µM) | 5.6 | – | – | 0.61 (≈ 1.84 µM) | 3.7 | – | – | – | – | – | – | – | 2.9 (≈ 8.75 µM) | 3.5 | – | 0.82 (≈ 2.47 µM) | 3
